Laboratory results reported in ChEMBL document CHEMBL1909294, “Translating clinical findings into knowledge in drug safety evaluation--drug induced liver injury prediction system (DILIps)” (PLoS Comput Biol, 2011).

What was measured:
Hepatotoxicity [1] = tested on: Hepatotoxicity;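 for HepSE cholecystitis: Cholecystitis-related hepatic side effect score drawn from the DILIps (drug-induced liver injury prediction) training data set; call rule not given here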;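 for HepSE cirrhosis: cirrhosis hepatic side effect score taken from the DILIps (drug-induced liver injury prediction) training set; call rule not given here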;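 for HepSE hepatic necrosis: score of hepatic side effects for hepatic necrosis, drawn from the training data of DILIps, a prediction system for drug-induced liver injury; call rule not given here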;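 for HepSE hepatomegaly: hepatic side effect score for hepatomegaly, taken from the training set of the DILIps drug-induced liver injury prediction system; call rule not given here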;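 for HepSE liver fatty: hepatic side effect score for fatty liver, taken from the DILIps training set for predicting drug-induced liver injury; call rule not given here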;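 for HepSE liver function tests abnormal: hepatic side effect score taken from the DILIps (drug-induced liver injury prediction system) training data, here covering abnormal liver function test findings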
Hepatotoxicity [2] = tested on: Hepatotoxicity; remark: listed apart in the source;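 for HepSE cholecystitis: Cholecystitis-related hepatic side effect score drawn from the DILIps (drug-induced liver injury prediction) training data set; call rule not given here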;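 for HepSE cirrhosis: cirrhosis hepatic side effect score taken from the DILIps (drug-induced liver injury prediction) training set; call rule not given here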;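 for HepSE hepatic necrosis: score of hepatic side effects for hepatic necrosis, drawn from the training data of DILIps, a prediction system for drug-induced liver injury; call rule not given here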;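 for HepSE hepatomegaly: hepatic side effect score for hepatomegaly, taken from the training set of the DILIps drug-induced liver injury prediction system; call rule not given here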;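 for HepSE liver fatty: hepatic side effect score for fatty liver, taken from the DILIps training set for predicting drug-induced liver injury; call rule not given here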;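 for HepSE liver function tests abnormal: hepatic side effect score taken from the DILIps (drug-induced liver injury prediction system) training data, here covering abnormal liver function test findings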
Hepatotoxicity [3] = tested on: Hepatotoxicity; remark: listed apart in the source;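 for HepSE cholecystitis: Cholecystitis-related hepatic side effect score drawn from the DILIps (drug-induced liver injury prediction) training data set; call rule not given here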;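 for HepSE cirrhosis: cirrhosis hepatic side effect score taken from the DILIps (drug-induced liver injury prediction) training set; call rule not given here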;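 for HepSE hepatic necrosis: score of hepatic side effects for hepatic necrosis, drawn from the training data of DILIps, a prediction system for drug-induced liver injury; call rule not given here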;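 for HepSE hepatomegaly: hepatic side effect score for hepatomegaly, taken from the training set of the DILIps drug-induced liver injury prediction system; call rule not given here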;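 for HepSE liver function tests abnormal: hepatic side effect score taken from the DILIps (drug-induced liver injury prediction system) training data, here covering abnormal liver function test findings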
Hepatotoxicity [4] = tested on: Hepatotoxicity; remark: listed apart in the source;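 for HepSE cholecystitis: Cholecystitis-related hepatic side effect score drawn from the DILIps (drug-induced liver injury prediction) training data set; call rule not given here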;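 for HepSE cirrhosis: cirrhosis hepatic side effect score taken from the DILIps (drug-induced liver injury prediction) training set; call rule not given here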;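 for HepSE hepatic necrosis: score of hepatic side effects for hepatic necrosis, drawn from the training data of DILIps, a prediction system for drug-induced liver injury; call rule not given here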;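 for HepSE hepatomegaly: hepatic side effect score for hepatomegaly, taken from the training set of the DILIps drug-induced liver injury prediction system; call rule not given here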;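 for HepSE liver function tests abnormal: hepatic side effect score taken from the DILIps (drug-induced liver injury prediction system) training data, here covering abnormal liver function test findings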
Hepatotoxicity [5] = tested on: Hepatotoxicity; remark: listed apart in the source
Hepatotoxicity [6] = tested on: Hepatotoxicity; remark: listed apart in the source
Hepatotoxicity [7] = tested on: Hepatotoxicity; remark: listed apart in the source
Hepatotoxicity [8] = tested on: Hepatotoxicity; remark: listed apart in the source
Hepatotoxicity [9] = tested on: Hepatotoxicity; remark: listed apart in the source
Hepatotoxicity [10] = tested on: Hepatotoxicity; remark: listed apart in the source
Hepatotoxicity [11] = tested on: Hepatotoxicity; remark: listed apart in the source
Hepatotoxicity [12] = tested on: Hepatotoxicity; remark: listed apart in the source
Hepatotoxicity [13] = tested on: Hepatotoxicity; remark: listed apart in the source
Hepatotoxicity [14] = tested on: Hepatotoxicity; remark: listed apart in the source

Compound	HepSE_hepatic necrosis (Hepatotoxicity [1])	HepSE_cirrhosis (Hepatotoxicity [2])	HepSE_liver function tests abnormal (Hepatotoxicity [3])	HepSE_hepatomegaly (Hepatotoxicity [4])	HepSE_cholecystitis (Hepatotoxicity [5])	HepSE_liver fatty (Hepatotoxicity [6])	HepSE_jaundice (Hepatotoxicity [7])	HepSE_cholelithiasis (Hepatotoxicity [8])	HepSE_liver disease (Hepatotoxicity [9])	HepSE_hepatitis (Hepatotoxicity [10])	HepSE_elevated liver function tests (Hepatotoxicity [11])	HepSE_hepatic failure (Hepatotoxicity [12])	HepSE_Combined Scores (Hepatotoxicity [13])	HepSE_bilirubinemia (Hepatotoxicity [14])	further results
CCCSc1ccc2nc(NC(=O)OC)[nH]c2c1 [ALBENDAZOLE]	0	0	0	0	0	0	0	0	1	1	0	1	3	0	–
NC(=O)NO [HYDROXYUREA]	0	0	0	0	0	0	0	0	0	0	0	0	0	0	–
O=C(CCCN1CCC(O)(c2ccc(Cl)cc2)CC1)c1ccc(F)cc1 [HALOPERIDOL]	0	0	0	0	0	0	1	0	0	0	0	0	1	0	–
Clc1ccc2nsnc2c1NC1=NCCN1 [TIZANIDINE]	–	–	–	–	–	–	–	–	–	–	–	–	–	–	HepSE_hepatic necrosis (Hepatotoxicity [1]; Liver): 1; HepSE_cirrhosis (Hepatotoxicity [2]; Liver): 1; HepSE_liver function tests abnormal (Hepatotoxicity [3]; Liver): 1; HepSE_hepatomegaly (Hepatotoxicity [4]; Liver): 0; HepSE_cholecystitis (Hepatotoxicity [5]; Liver): 0; HepSE_liver fatty (Hepatotoxicity [6]; Liver): 0; HepSE_jaundice (Hepatotoxicity [7]; Liver): 1; HepSE_cholelithiasis (Hepatotoxicity [8]; Liver): 1; HepSE_liver disease (Hepatotoxicity [9]; Liver): 1; HepSE_hepatitis (Hepatotoxicity [10]; Liver): 1; HepSE_elevated liver function tests (Hepatotoxicity [11]; Liver): 0; HepSE_hepatic failure (Hepatotoxicity [12]; Liver): 1; HepSE_Combined Scores (Hepatotoxicity [13]; Liver): 8; HepSE_bilirubinemia (Hepatotoxicity [14]; Liver): 0
Cn1c(=O)c2[nH]cnc2n(C)c1=O.Cn1c(=O)c2[nH]cnc2n(C)c1=O.NCCN [AMINOPHYLLINE]	0	0	0	0	0	0	0	0	0	0	0	0	0	0	–
COCC(=O)Nc1c(I)c(C(=O)NCC(O)CO)c(I)c(C(=O)N(C)CC(O)CO)c1I (configuration not stated) [IOPROMIDE]	0	0	0	0	0	0	0	0	0	0	0	0	0	0	–
CCCCc1nc(N)[se]c1CCC	0	0	0	0	0	0	0	0	0	0	0	0	0	0	–
[Mg]	0	0	0	0	0	0	0	0	0	0	0	0	0	0	–
CCOC(=O)c1ccc(C#Cc2ccc3c(c2)C(C)(C)CCS3)nc1 [TAZAROTENE]	0	0	0	0	0	0	0	0	0	0	0	0	0	0	–
CC(C)NCC(O)COc1cccc2ccccc12 (configuration not stated) [PROPRANOLOL]	0	0	0	0	0	0	0	0	0	0	0	0	0	0	–
CN[C@@H]1[C@H](O)[C@H](NC)[C@H]2O[C@@]3(O)C(=O)C[C@@H](C)O[C@H]3O[C@@H]2[C@H]1O [SPECTINOMYCIN]	0	0	0	0	0	0	0	0	0	0	0	0	0	0	–
Cn1c(=O)c2[nH]cnc2n(C)c1=O.O [THEOPHYLLINE]	0	0	0	0	0	0	0	0	0	0	0	0	0	0	–
CCc1ccc(CCOc2ccc(CC3SC(=O)NC3=O)cc2)nc1 (configuration not stated) [PIOGLITAZONE]	0	0	1	0	0	0	0	0	0	1	0	1	3	0	–
CCCN(CCC)S(=O)(=O)c1ccc(C(=O)O)cc1 [PROBENECID]	1	0	0	0	0	0	0	0	0	0	0	0	1	0	–
CC(=O)Nc1nnc(S(N)(=O)=O)s1 [ACETAZOLAMIDE]	1	0	0	0	0	0	1	0	0	0	0	0	2	0	–
CC(=O)/N=c1/sc(S(N)(=O)=O)nn1C [METHAZOLAMIDE]	1	0	0	0	0	0	0	0	0	0	0	0	1	0	–
CNCCCC1c2ccccc2C=Cc2ccccc21 [PROTRIPTYLINE]	–	–	–	–	–	–	–	–	–	–	–	–	–	–	HepSE_hepatic necrosis (Hepatotoxicity [1]; Liver): 0; HepSE_cirrhosis (Hepatotoxicity [2]; Liver): 0; HepSE_liver function tests abnormal (Hepatotoxicity [3]; Liver): 0; HepSE_hepatomegaly (Hepatotoxicity [4]; Liver): 0; HepSE_cholecystitis (Hepatotoxicity [5]; Liver): 0; HepSE_liver fatty (Hepatotoxicity [6]; Liver): 0; HepSE_jaundice (Hepatotoxicity [7]; Liver): 1; HepSE_cholelithiasis (Hepatotoxicity [8]; Liver): 0; HepSE_liver disease (Hepatotoxicity [9]; Liver): 0; HepSE_hepatitis (Hepatotoxicity [10]; Liver): 0; HepSE_elevated liver function tests (Hepatotoxicity [11]; Liver): 0; HepSE_hepatic failure (Hepatotoxicity [12]; Liver): 0; HepSE_Combined Scores (Hepatotoxicity [13]; Liver): 1; HepSE_bilirubinemia (Hepatotoxicity [14]; Liver): 0
CC(C)/N=c1\cc2n(-c3ccc(Cl)cc3)c3ccccc3nc-2cc1Nc1ccc(Cl)cc1 [CLOFAZIMINE]	0	0	0	1	0	0	1	0	0	1	0	0	3	0	–
